Legend:
Format in all cases: in vivo
[1] = test system: Smooth Crabgrass (Digitaria ischaemum); assay: Example 1 post-emergent turf plot test, 3 leaf/2 tiller crabgrass
Method: (§1) The experimental design used randomized plots with post-emergent treatment and three replications per test trial. The size of each experimental plot was 4 feet by 6 feet. The application of each test composition was performed with pressurized back-pack sprayers, calibrated to spray 200 gallons per acre. Test compositions containing sulfentrazone (DISMISS™ Turf Herbicide), quniclorac, (FACET® 75 DF herbicide) or a mixture of sulfentrazone and quinclorac in a 1:3 ratio, prepared as described above, were diluted with water to provide the appropriate test rate concentrations.
(§2) The control of weeds was evaluated in each experimental plot from 7 to 41 days after treatment (DAT) of each test rate. The results, shown as an average of the replications, were compared with results observed in untreated control plots in the same trials.

[2] = test system: Yellow Nutsedge (Cyperus esculentus); assay: Example 1 post-emergent turf plot test, nutsedge
Method: as §1, §2

[3] = test system: Smooth Crabgrass (Digitaria ischaemum); assay: Example 2 post-emergent turf plot test, tillered crabgrass
Method: as §1, with “quinclorac,” for “quniclorac,”, “one to three” for “1:3”
(§3) The control of weeds was evaluated in each experimental plot from 1 to 27 days after treatment (DAT) of each test rate. The results, shown as an average of the replications, were compared with results observed in untreated control plots in the same trials.

[4] = test system: Field Violet (Viola arvensis); assay: Example 2 post-emergent turf plot test, violet
Method: as §1, with “quinclorac,” for “quniclorac,”, “one to three” for “1:3”
as §3

[5] = test system: Blackseed Plantain (Plantago rugelii); assay: Example 2 post-emergent turf plot test, plantain
Method: as §1, with “quinclorac,” for “quniclorac,”, “one to three” for “1:3”
as §3

Kochia (Kochia scoparia) = assay: Example 4 post-emergence greenhouse pot test, kochia
Method: (§4) Test compositions containing sulfentrazone (75 DF formulation), quniclorac, (DRIVE® 75 DF Herbicide) or mixtures of sulfentrazone and quinclorac at ratios of 1:1 to 1:5, were diluted with water to provide the appropriate test rate concentrations. A nonionic surfactant (0.25%) was added to each test solution. The test weeds include crabgrass (Digitaria sp), Chickweed (Stellaria media), Hemp Sesbania (Sesbania exaltata), Kochia (Kochia scoparia), Ivyleaf Morningglory (Ipomoea hederacea), Redroot Pigweed (Amaranthus retroflexus) and yellow nutsedge (Cyperus esculentusi).
(§5) For post-emergence testing, three disposable 3 inch square pots for each rate of application of each herbicide were filled with a soil, comprised of peat moss, vermiculite, bark ash, pine bark, limestone and a wetting agent, to which 8 to 10 seeds were planted. The pots were placed in a greenhouse and watered daily, thus allowing the seeds to germinate and the foliage to develop for 22 days, 3 months for Kochia.
(§6) Pots designated for treatment were placed on a conveyor belt and the conveyor belt fed under a spray nozzle mounted about ten inches above the foliage. The spray of herbicidal solution was commenced and once stabilized; the pots were passed under the spray at a speed to receive a coverage equivalent of 30 gallons per acre. The application rates are those shown in Table 4 below for the individual herbicidal solutions and the mixture of sulfentrazone and quinclorac. The post-emergence pots were immediately placed in the green-house and not watered until 24 hours after treatment with the test solution. Thereafter they were regularly watered at ground level. The control of weeds was evaluated in each experimental test from 2 to 20 days after treatment (DAT). The results, shown as an average of the replications, were compared with results observed in untreated control pots in the same tests.
(§7) Percent control was determined by a method similar to the 0 to 100 rating system disclosed in “Research Methods in Weed Science,” 2nd ed., B. Truelove, Ed.; Southern Weed Science Society; Auburn University, Auburn, Ala., 1977.

[6] = test system: Redroot Pigweed (Amaranthus retroflexus); assay: Example 4 post-emergence greenhouse pot test, pigweed
Method: as §4, §5, §6, §7

[7] = test system: yellow nutsedge (Cyperus esculentusi); assay: Example 4 post-emergence greenhouse pot test, nutsedge
Method: as §4, §5, §6, §7

SMILES: Cc1nn(-c2cc(NS(C)(=O)=O)c(Cl)cc2Cl)c(=O)n1C(F)F [A, N-[2,4-dichloro-5-[4-(difluoromethyl)-4,5-dihydro-3-methyl-5-oxo-1H-1,2,4-triazol-1-yl]phenyl]methanesulfonamide]
- Percent Control ([1]; 0.57 lb ai/acre, 7 DAT): 70%
- Percent Control ([1]; 0.57 lb ai/acre, 14 DAT): 78%
- Percent Control ([1]; 0.57 lb ai/acre, 21 DAT): 86%
- Percent Control ([1]; 0.57 lb ai/acre, 28 DAT): 75%
- Percent Control ([1]; 0.57 lb ai/acre, 41 DAT): 71%
- Percent Control ([2]; 0.57 lb ai/acre, 7 DAT): 50%
- Percent Control ([2]; 0.57 lb ai/acre, 14 DAT): 75%
- Percent Control ([2]; 0.57 lb ai/acre, 21 DAT): 89%
- Percent Control ([2]; 0.57 lb ai/acre, 28 DAT): 91%
- Percent Control ([3]; 0.57 lb ai/acre, 7 DAT): 34%
- Percent Control ([3]; 0.57 lb ai/acre, 14 DAT): 36%
- Percent Control ([3]; 0.57 lb ai/acre, 21 DAT): 52%
- Percent Control ([4]; 0.57 lb ai/acre, 7 DAT): 66%
- Percent Control ([4]; 0.57 lb ai/acre, 14 DAT): 78%
- Percent Control ([4]; 0.57 lb ai/acre, 21 DAT): 69%
- Percent Control ([5]; 0.57 lb ai/acre, 7 DAT): 100%
- Percent Control ([5]; 0.57 lb ai/acre, 14 DAT): 100%
- Percent Control ([5]; 0.57 lb ai/acre, 21 DAT): 100%
- Percent Control (Kochia (Kochia scoparia); 0.25 lb ai/acre, 2 DAT): 10%
- Percent Control (Kochia (Kochia scoparia); 0.25 lb ai/acre, 7 DAT): 70%
- Percent Control (Kochia (Kochia scoparia); 0.25 lb ai/acre, 14 DAT): 95%
- Percent Control (Kochia (Kochia scoparia); 0.25 lb ai/acre, 20 DAT): 99%
- Percent Control ([6]; 0.25 lb ai/acre, 2 DAT): 80%
- Percent Control ([6]; 0.25 lb ai/acre, 7 DAT): 95%
- Percent Control ([6]; 0.25 lb ai/acre, 14 DAT): 99%
- Percent Control ([6]; 0.25 lb ai/acre, 20 DAT): 90%
- Percent Control ([7]; 0.25 lb ai/acre, 2 DAT): 25%
- Percent Control ([7]; 0.25 lb ai/acre, 7 DAT): 60%
- Percent Control ([7]; 0.25 lb ai/acre, 14 DAT): 85%
- Percent Control ([7]; 0.25 lb ai/acre, 20 DAT): 95%

SMILES: O=C(O)c1c(Cl)ccc2cc(Cl)cnc12 [B, 3,7-dichloro-8-quinolinecarboxylic acid]
- Percent Control ([1]; 0.75 lb ai/acre, 7 DAT): 75%
- Percent Control ([1]; 0.75 lb ai/acre, 14 DAT): 55%
- Percent Control ([1]; 0.75 lb ai/acre, 21 DAT): 78%
- Percent Control ([1]; 0.75 lb ai/acre, 28 DAT): 67%
- Percent Control ([1]; 0.75 lb ai/acre, 41 DAT): 57%
- Percent Control ([2]; 0.75 lb ai/acre, 7 DAT): 100%
- Percent Control ([2]; 0.75 lb ai/acre, 14 DAT): 40%
- Percent Control ([2]; 0.75 lb ai/acre, 21 DAT): 10%
- Percent Control ([2]; 0.75 lb ai/acre, 28 DAT): 13%
- Percent Control ([3]; 0.75 lb ai/acre, 7 DAT): 54%
- Percent Control ([3]; 0.75 lb ai/acre, 14 DAT): 66%
- Percent Control ([3]; 0.75 lb ai/acre, 21 DAT): 67%
- Percent Control ([4]; 0.75 lb ai/acre, 7 DAT): 46%
- Percent Control ([4]; 0.75 lb ai/acre, 14 DAT): 48%
- Percent Control ([4]; 0.75 lb ai/acre, 21 DAT): 51%
- Percent Control ([5]; 0.75 lb ai/acre, 7 DAT): 83%
- Percent Control ([5]; 0.75 lb ai/acre, 14 DAT): 100%
- Percent Control ([5]; 0.75 lb ai/acre, 21 DAT): 100%
- Percent Control (Kochia (Kochia scoparia); 0.25 lb ai/acre, 2 DAT): 0%
- Percent Control (Kochia (Kochia scoparia); 0.25 lb ai/acre, 7 DAT): 0%
- Percent Control (Kochia (Kochia scoparia); 0.25 lb ai/acre, 14 DAT): 5%
- Percent Control (Kochia (Kochia scoparia); 0.25 lb ai/acre, 20 DAT): 5%
- Percent Control (Kochia (Kochia scoparia); 0.5 lb ai/acre, 2 DAT): 0%
- Percent Control (Kochia (Kochia scoparia); 0.5 lb ai/acre, 7 DAT): 0%
- Percent Control (Kochia (Kochia scoparia); 0.5 lb ai/acre, 14 DAT): 20%
- Percent Control (Kochia (Kochia scoparia); 0.5 lb ai/acre, 20 DAT): 20%
- Percent Control (Kochia (Kochia scoparia); 0.75 lb ai/acre, 2 DAT): 0%
- Percent Control (Kochia (Kochia scoparia); 0.75 lb ai/acre, 7 DAT): 0%
- Percent Control (Kochia (Kochia scoparia); 0.75 lb ai/acre, 14 DAT): 10%
- Percent Control (Kochia (Kochia scoparia); 0.75 lb ai/acre, 20 DAT): 5%
- Percent Control (Kochia (Kochia scoparia); 1.0 lb ai/acre, 2 DAT): 0%
- Percent Control (Kochia (Kochia scoparia); 1.0 lb ai/acre, 7 DAT): 0%
- Percent Control (Kochia (Kochia scoparia); 1.0 lb ai/acre, 14 DAT): 10%
- Percent Control (Kochia (Kochia scoparia); 1.0 lb ai/acre, 20 DAT): 20%
- Percent Control (Kochia (Kochia scoparia); 1.25 lb ai/acre, 2 DAT): 0%
- Percent Control (Kochia (Kochia scoparia); 1.25 lb ai/acre, 7 DAT): 0%
- Percent Control (Kochia (Kochia scoparia); 1.25 lb ai/acre, 14 DAT): 10%
- Percent Control (Kochia (Kochia scoparia); 1.25 lb ai/acre, 20 DAT): 10%
- Percent Control ([6]; 0.25 lb ai/acre, 2 DAT): 10%
- Percent Control ([6]; 0.25 lb ai/acre, 7 DAT): 10%
- Percent Control ([6]; 0.25 lb ai/acre, 14 DAT): 10%
- Percent Control ([6]; 0.25 lb ai/acre, 20 DAT): 10%
- Percent Control ([6]; 0.5 lb ai/acre, 2 DAT): 0%
- Percent Control ([6]; 0.5 lb ai/acre, 7 DAT): 0%
- Percent Control ([6]; 0.5 lb ai/acre, 14 DAT): 0%
- Percent Control ([6]; 0.5 lb ai/acre, 20 DAT): 0%
- Percent Control ([6]; 0.75 lb ai/acre, 2 DAT): 0%
- Percent Control ([6]; 0.75 lb ai/acre, 7 DAT): 0%
- Percent Control ([6]; 0.75 lb ai/acre, 14 DAT): 0%
- Percent Control ([6]; 0.75 lb ai/acre, 20 DAT): 0%
- Percent Control ([6]; 1.0 lb ai/acre, 2 DAT): 0%
- Percent Control ([6]; 1.0 lb ai/acre, 7 DAT): 0%
- Percent Control ([6]; 1.0 lb ai/acre, 14 DAT): 0%
- Percent Control ([6]; 1.0 lb ai/acre, 20 DAT): 0%
- Percent Control ([6]; 1.25 lb ai/acre, 2 DAT): 10%
- Percent Control ([6]; 1.25 lb ai/acre, 7 DAT): 10%
- Percent Control ([6]; 1.25 lb ai/acre, 14 DAT): 10%
- Percent Control ([6]; 1.25 lb ai/acre, 20 DAT): 10%
- Percent Control ([7]; 0.25 lb ai/acre, 2 DAT): 0%
- Percent Control ([7]; 0.25 lb ai/acre, 7 DAT): 0%
- Percent Control ([7]; 0.25 lb ai/acre, 14 DAT): 0%
- Percent Control ([7]; 0.25 lb ai/acre, 20 DAT): 0%
- Percent Control ([7]; 0.5 lb ai/acre, 2 DAT): 0%
- Percent Control ([7]; 0.5 lb ai/acre, 7 DAT): 0%
- Percent Control ([7]; 0.5 lb ai/acre, 14 DAT): 0%
- Percent Control ([7]; 0.5 lb ai/acre, 20 DAT): 0%
- Percent Control ([7]; 0.75 lb ai/acre, 2 DAT): 0%
- Percent Control ([7]; 0.75 lb ai/acre, 7 DAT): 0%
- Percent Control ([7]; 0.75 lb ai/acre, 14 DAT): 0%
- Percent Control ([7]; 0.75 lb ai/acre, 20 DAT): 0%
- Percent Control ([7]; 1.0 lb ai/acre, 2 DAT): 0%
- Percent Control ([7]; 1.0 lb ai/acre, 7 DAT): 0%
- Percent Control ([7]; 1.0 lb ai/acre, 14 DAT): 0%
- Percent Control ([7]; 1.0 lb ai/acre, 20 DAT): 0%
- Percent Control ([7]; 1.25 lb ai/acre, 2 DAT): 0%
- Percent Control ([7]; 1.25 lb ai/acre, 7 DAT): 0%
- Percent Control ([7]; 1.25 lb ai/acre, 14 DAT): 0%
- Percent Control ([7]; 1.25 lb ai/acre, 20 DAT): 0%

From patent US10897901B2, “Herbicidal composition” (FMC Corporation, priority 2007, dated 2021)
